Legend:
brain of MCAO mice = experiment: Fluorescence imaging of FITC-labeled VK in brain of stroke mice; type: in vivo, mouse; conditions: stroke mice, brains collected at 0, 30, 60, 90, 120 min, confocal microscopy of sections
Experimental: A successful MCAO model was established and these mice were used for subsequent experiments. Immediately after surgery, FITC or FITC-labeled VK were administered intravenously and mice were killed after 30 min to isolate the brain and imaged by an imaging system (IVIS Lumina II). For fluorescent imaging, the brain was immediately collected and kept in the dark for 0, 30, 60, and 90 min after the administration of VK. Frozen sections were prepared according to the above method (seen Morphological Assessment). Images were acquired by confocal microscopy (FV1000 MPE-B, Olympus).

[1] = system: HT22 hippocampal neuron cells (OGD/R); experiment: Live-cell imaging of FITC-labeled VK; type: cell-based, mouse; conditions: HT22 cells after OGD/R, 7.35 µM (b12; method b96: 100 nM), 37 °C, confocal fluorescence
Experimental: VK (Gly–Arg–Pro–Hyp–[…]NH2) was labeled with FITC in the N-terminus. VK (100 nM) was added to each well and, after 15 min of incubation at 37 °C, live-cell images were acquired and processed by confocal microscopy (Zeiss LSM 880). Live-cell images were recorded for 90 min. The negative group was FITC treated without labeled VK.
After 24 h, medium in the transwell
Cell cultures, treatment, and OGD.
Experiments were divided into the four

AKT phosphorylation = experiment: p-AKT immunoblot under OGD/R with HOE140; type: cell-based; conditions: HOE140 100 nM, VK 0.0735, 0.735, 7.35 µM
Text: (5 pictures or pasted objects on this page, not shown here)

MCAO/R mice [2] = experiment: Evans blue extravasation, BBB permeability; type: in vivo, mouse; conditions: VK 300 µg/kg
MCAO/R mice [3] = conditions: mouse, in vivo
rats = conditions: BK after transient forebrain ischemia in rats; ref not given; cited from earlier work
Experimental: After the onset of cerebral ischemia stroke, ATP levels expeditiously decline during the first 5 min and fall to ~15–30% of the ATP concentration measured in the non-ischemic hemisphere over the first 2 h after ischemia onset. In the present study, VK therapy partially recovered energy metabolism in the ischemic hemisphere as determined by the detection of ATP and LD content. Furthermore, to illustrate the effect of VK on energy metabolism in neurons, the glycolysis and oxidative phosphorylation pathways in neurons were also evaluated by Seahorse after stroke. Increasing evidence indicates tha ...

CC[C@H](C)[C@H](NC(=O)[C@H](CCCNC(=N)N)NC(=O)[C@H](Cc1ccccc1)NC(=O)[C@@H]1CCCN1C(=O)[C@H](CO)NC(=O)[C@H](Cc1ccccc1)NC(=O)CNC(=O)[C@@H]1C[C@@H](O)CN1C(=O)[C@@H]1CCCN1C(=O)[C@H](CCCNC(=N)N)NC(=O)CNC(=S)Nc1ccc2c(c1)C(=O)OC21c2ccc(O)cc2Oc2cc(O)ccc21)C(=O)N[C@@H](CC(=O)O)C(N)=O [FITC-labeled VK]
distribution in brain regions (brain of MCAO mice): seen in the cortex, hippocampus, and striatum | crossing of the cell membrane, live-cell imaging [1]: partially crossed the cell membrane

HOE140
VK-mediated AKT activation (AKT phosphorylation): inhibit VK-mediated AKT activation | BBB integrity under combined administration of VK and HOE140, EB extravasation (MCAO/R mice [2]): damaged the BBB integrity | major pharmacological effects of VK under HOE140 preconditioning (MCAO/R mice [3]): blocked

Lys-(des-Arg9-Leu8)-BK [reference compound]
functional injury under combination of VK and B1R antagonist (MCAO/R mice [3]): improved functional injury

bradykinin (RPPGFSPFR; Bradykinin; UniProt P01042 381-389, looked up) [BK, endogenous peptide]
neuroprotection (rats): 97%
